Measured values published in PubChem BioAssay AID1508591.

details: rat; liver microsomes; pH 7.4; 15.0 min; 1.0 µM

Structure (SMILES) | half-life [min]
COC(=O)c1ccc2nc(NC3=NC(c4[nH]ncc4Cl)C4=C(CCCC4=O)N3)oc2c1 (stereo unspecified) | 5.9
CC(C)c1ccc(CC(=O)N2CCCc3ncc(C(=O)Nc4cccnc4)cc32)cc1 | 5.67
COc1ccc(NC(=O)c2[nH]c(C)c(C(C)=O)c2C)cc1S(=O)(=O)N(C)C | > 30
COc1ccc(-c2ccc3ncc4c(c3c2)n(-c2ccc(N3CCNCC3)c(C(F)(F)F)c2)c(=O)n4C)cn1 | > 30
O=C(NC1CC1)c1nc(-c2cccnc2)c2cnccn12 | > 30
COc1cccc(-n2nc(C(=O)O)cc2-c2ccc(C3CCCCC3)c(Cl)c2)c1 | > 30
NC(=O)C1CCN(c2nc(-c3ccc(N)cc3)cs2)CC1 | > 30
CCCNC(=O)c1ccc2c(c1)N=C(C)c1c(C)ccc(C)c1S2 | 1.34
c1ccc(CNc2cc3c(cn2)CN(Cc2cccnc2)CCN3)cc1 | 15
Cc1ccc(NC(=O)c2c(N3CCCC3=O)c3cc(C)ccc3n2C)c(C)c1 | 1.31
Cn1cc(S(=O)(=O)N2CCCCCC2)cc1C(=O)Nc1ccc(Cl)c(C(F)(F)F)c1 | 5.98
CC(=O)N1CCc2c(sc3c2c(=O)n(-c2ccccc2)c(=O)n3CC(=O)c2ccccc2)C1 | > 30
CCCCN(C)C(=O)c1c(C)sc2ccn(CCC)c(=O)c12 | 13.3
Cc1ccc(S(=O)(=O)Nc2cnccc2C(=O)Nc2ccc(S(=O)(=O)Nc3nccs3)cc2)cc1 | 5.3
NC(=O)C1CCN(c2ncc(-c3cccc(N4CCCC4)c3)s2)CC1 | 15
CN(C(=O)CNC(=O)c1cc(F)ccc1OCC(=O)Nc1ccc(I)cc1)c1ccc(F)cc1 | 1.74
NC(=O)C1CCN(c2nc(-c3cccc(N)c3)cs2)CC1 | > 30
CC(C)(C)c1ccc(C(=O)Nc2cn3cc(-n4ccnc4)ccc3n2)cc1 | > 30
CCn1c(C)c(C(C)=O)c(C)c1C(=O)Nc1cccc([S+](=O)([O-])N(C)C)c1 | 6.5
COc1ccc(-c2nc(-c3c(C)noc3C)cc3c2cc(C)n3CCN(C)C)cc1OC | > 30
NC(=O)C1CCN(c2nc(-c3cccnc3)cs2)CC1 | > 30
COCC(C)NCc1cc2ccc(OC)cc2nc1N1CCN(c2ccc(F)cc2)CC1 (stereo unspecified) | 10.4

Structure (SMILES) | half-life [min]
NC(=O)C1CCN(c2ncc(-c3cccc(N4CCOCC4)c3)s2)CC1 | > 30
C=C1[C@@H](C)C2[C@H](Cc3ccccc3)NC(=O)[C@@]23C(/C=C/C[C@H](C)C[C@@](C)(O)/C=C/[C@@H]3OC(C)=O)[C@@H]1O (stereo partly specified) | 5.2
NC(=O)C1CCN(c2nc(-c3ccc4occc(=O)c4c3)cs2)CC1 | 6.19
CCOc1ccc(NC(=O)CC2C(=O)N(c3ccc(F)cc3)C(=O)N2CCc2sccc2C)cc1 (stereo unspecified) | 1.33
CCOc1ccc(CCNC(=O)c2cc3sccc3n2Cc2ccncc2)cc1OCC | 1.6
Cc1cccc(NC(=S)N2CCN(c3cccc(C(F)(F)F)c3)CC2)c1 | 6
Cc1ccc(-c2c(CN3CCN(c4cccc(C(F)(F)F)c4)CC3)csc2C)cc1 | 18.5
COc1cc2ncnc(Oc3cccc(NC(=O)Nc4cc(C(C)(C)C(F)(F)F)on4)c3)c2cc1OC | > 30
Fc1ccc(-c2csc3ncnc(Sc4nnnn4C4CC4)c23)cc1 | 4.2
C[C@@H]1Cc2c([nH]c3cc(Cl)c(F)cc23)[C@]2(N1)C(=O)Nc1ccc(Cl)cc12 | > 30
NC(=O)C1CCN(c2nc(-c3ccc(N4CCCCC4)nc3)cs2)CC1 | 17.2
Cc1nc(NCc2ccco2)nc2c1C(=O)CC(C)C2 (stereo unspecified) | 2.7
COC(=O)[C@@]12OC[C@]34[C@H]([C@@H](O)[C@@H]1O)[C@@]1(C)CC(=O)C(O)=C(C)[C@@H]1C[C@H]3OC(=O)[C@H](OC(=O)/C=C(\C)C(C)C)[C@@H]24 | 10.1
Cc1onc(-c2ccc(F)cc2)c1COc1ccc(C(=O)N2CCS(=O)(=O)CC2)cn1 | 9.64
Cc1ccc(S(=O)(=O)Nc2ccc(C(=O)Nc3nc(-c4ccc(Cl)cc4)cs3)cc2)cc1 | 16
O=C(Nc1ccc2c(N3CCCCC3)ncnc2c1)c1cc(F)cc(F)c1 | 1.5
C=Cc1ccc(Cn2c(C(=O)O)c(CNC3CCCCC3)c3ccc(OC)cc32)cc1 | 7.15
O=C(Nc1nnc(C2CCCCC2)s1)c1ccc(Br)s1 | > 30
CN(C)C(=O)NC1CCC(CCN2CCN(c3cccc(Cl)c3Cl)CC2)CC1 (stereo unspecified) | > 30
COc1ccc(CN2CCc3c(c(=O)n4ncc(C(=O)N5CCN(c6ccccc6OC)CC5)c4n3C)C2)cc1 | 1.97
COc1ccc(C2=Nn3c(nnc3-c3ccncc3)SC2)cc1 | 1.9
O=c1[nH]c(C2CCN(S(=O)(=O)c3ccc4c(c3)OCCO4)CC2)nc2c1nnn2Cc1c(F)cccc1Cl | 1.4

The remaining lines, values ahead:

half-life [min] | Structure (SMILES)
1.95 | O=S(=O)(c1ccccc1)c1nc(-c2ccc(F)cc2)oc1N1CCCCCC1
12.9 | CNc1sc(-c2cccc3ccccc23)nc1C#N
2.4 | O=C(Nc1cncc(Cc2ccccc2)c1)c1ccc(-c2cccc([N+](=O)[O-])c2)o1
> 30 | COc1ccc(-c2ccc(C(=O)NC3CC(c4cc(=O)[nH]c(N)n4)C3)o2)cc1 (stereo unspecified)
> 30 | CNc1oc(-c2cccc3ccccc23)nc1C(=O)OC
1.96 | CCc1cccc(NS(=O)(=O)c2ccc3c(c2)CC(C)N3C(=O)C2CC2)c1 (stereo unspecified)
18 | O=S(=O)(Nc1cnc2ccccc2c1)c1ccc(NCc2ccc(Br)cc2O)cc1
25 | Nc1ccc(S(=O)(=O)Nc2cnccc2C(=O)Nc2nc(-c3ccccc3)cs2)cc1
20 | O=C(Nc1nc(-c2ccccc2)cs1)c1ccncc1NS(=O)(=O)c1cccnc1
13 | COc1ccc(C(=O)Nc2nc(-c3ccccc3)cs2)cc1NS(=O)(=O)c1ccc(C)cc1
8.96 | Cc1cccc2c(C(=O)O)cc(-c3cccs3)nc12
4.14 | COc1ccc(OCc2ccc(-c3nc(C#N)c(NC(C)c4ccccc4)o3)o2)cc1 (stereo unspecified)
> 30 | O=C(Nc1ccc(S(=O)(=O)Nc2nccs2)cc1)c1cccc2ccccc12
1.4 | CN(C(=O)COC(=O)c1csc(NCc2ccccc2)n1)c1ccccc1
3.7 | COc1cccc(NS(=O)(=O)c2ccc(C)cc2)c1C(=O)Nc1nc(-c2ccccc2)cs1
> 30 | O=C(Nc1ncc(-c2ccccc2)s1)c1ccc(-c2cccc([N+](=O)[O-])c2)o1
3.6 | Cc1ccc(N(C)S(=O)(=O)c2ccc(-c3cnc(C4CC4)o3)cc2)cc1
> 30 | CNS(=O)(=O)c1cc(-c2nn3c(C)nnc3c3ccccc23)ccc1C
13 | O=C(Nc1nc(-c2ccccc2)cs1)c1ccncc1NS(=O)(=O)c1ccccc1

half-life [min] | Structure (SMILES)
7 | CC1=C(C(=O)NCc2ccccc2)C(c2ccccc2Br)N=C(Nc2nc3ccccc3o2)N1 (stereo unspecified)
4 | COc1cccc(NS(=O)(=O)c2ccc(NCc3cccc(OC)c3O)cc2)c1
3.18 | Cc1cccc(-c2cc(NC(=O)c3ccccc3C)n(-c3ccccc3)n2)c1
1.98 | CN(Cc1cccs1)c1nc(-c2ccccc2C(F)(F)F)nc2ccccc12
8.3 | Cc1ccc(NC(=O)c2cc(-c3ccc(C)o3)nc3ccccc23)nc1
9.6 | COc1ccccc1C(=O)N1CCc2cc(-c3nc(NC(=O)Cc4ccc5c(c4)OCO5)sc3C)ccc21
1.7 | COc1ccc(C(=O)Nc2ccc3c(c2)N(C2CCCC2)C(=O)c2ccccc2S3)cc1OC
> 30 | O=C(O)Cn1c(C(=O)Nc2nc(-c3ccccc3Cl)cs2)cc2ccccc21
15.2 | CN1CCN(c2ccc(Nc3nn4c(=O)c5ccccc5nc4s3)cc2)CC1
> 30 | O=C1CCC(CNC(=O)c2nc(-c3ccccc3)cc3[nH]ccc23)N1 (stereo unspecified)
23 | O=C(Nc1ccc(C(=O)Nc2nccs2)cc1)c1ccc2ccccc2c1
> 30 | COc1ccc(-c2ccc3nc(-c4cc(C)cc(C)c4)oc3c2)c(OC)c1OC
15.7 | COc1ccc(-c2cc(-c3cccc(NC(C)=O)c3)cn3cncc23)cn1
4.4 | CC(=O)c1c(C)[nH]c(C(=O)Nc2cccc([S+](=O)([O-])Nc3ccccc3C)c2)c1C
1.41 | CCc1cccc(NC(=O)c2c(C)oc3nc(C)nc(N4CCCC4)c23)c1
18 | COc1ccc(C(=O)Nc2nc(-c3ccccc3)cs2)c(OC)c1
13 | COc1ccc2[nH]c(=O)c(-c3noc(-c4cccs4)n3)cc2c1
3.3 | CCC(=O)NC(c1ccco1)c1cc(Cl)c2cccnc2c1O (stereo unspecified)
13 | COc1cccc(CNc2ccc(S(=O)(=O)Nc3cnc4ccccc4c3)cc2)c1O

half-life [min] | Structure (SMILES)
27.8 | CC[C@@](C)(Nc1ccnc(-c2c[nH]c3ncccc23)n1)C(=O)NCC(F)(F)F
1.47 | CCc1ccc2ncc(C(=O)c3ccc(C)c(C)c3)c(N3CCC(C(N)=O)CC3)c2c1
5.4 | O=S(=O)(Nc1nccs1)c1ccc(NCc2ccc(Br)cc2O)cc1
2.47 | COc1ccc(-c2cc(-c3ccccc3)nc(SCC(=O)Nc3ccccc3C)c2C#N)cc1
20.9 | O=C(Nc1cccc(OC(F)(F)F)c1)c1cc(-c2ccc[nH]2)n[nH]1
7.56 | N#C/C(=C\c1ccc(Sc2ccc(Cl)cc2)o1)c1nc2ccccc2[nH]1
7.99 | COc1cc(/C=C(\C#N)c2nc3ccccc3[nH]2)ccc1OCc1ccc(F)cc1
2.87 | Cc1cnc(-c2ccccc2C(C)C)nc1NCC1CCN(c2cccnc2)C1 (stereo unspecified)
> 30 | COc1ncc(-c2n[nH]c3c2CC(=O)N(c2ccccc2)C3)cn1
1.93 | O=C(c1cnn(-c2cccc(F)c2)c1-n1cccc1)N1CCN(c2ccccc2F)CC1
9.6 | O=C1CCCC2=C1C(c1ccccc1Br)N=C(Nc1nc3ccccc3o1)N2 (stereo unspecified)
> 30 | COc1ccc(-n2nc(C3CCCN(C(=O)Cc4ccccn4)C3)[nH]c2=O)cc1 (stereo unspecified)
1.62 | CCOC(=O)c1nc(Nc2ccc(N3CCC(C)CC3)cc2)c2ccccc2n1
6.3 | CCN1C(=O)c2ccccc2S(=O)c2ccc(NC(=O)Cc3ccc(F)cc3)cc21 (stereo unspecified)
20 | O=C1Nc2ccccc2/C1=C\c1ccc(O)c(F)c1
> 30 | O=C(NC1CCCc2c1cnn2-c1ccc(F)cc1F)c1ccccc1 (stereo unspecified)
5.3 | CN(C)c1ccc2cc(C(=O)N[C@@H](CCCN=C(N)CCl)C(=O)NCc3ccccc3)ccc2c1
> 30 | COc1cccc(CNc2ccc(S(=O)(=O)Nc3nc(C)cs3)cc2)c1O
1.77 | c1ccc(Nc2cc3c(cn2)CN(Cc2cccs2)CCN3)cc1
